Reference: patent publication US4879311A, “Derivatives of benzoyloxyacetic acid, and preparation and formulations thereof for therapeutic use” (Inverni della Beffa S.p.A., priority 1987, dated 1989)
“And” between values parts separate entries of the source, which are not always exact repeats. Equal entries are not always repeated. “Also recorded” adds a separate entry of the source. Structures can show the parent of a compound that is named as a salt. Where two headings read alike, the source gives them in different places.

Tests used:
carrageenin oedema = carrageenin oedema test in the rat, oral administration; assay type: in vivo; conditions: for % change of increase of original volume, 1 h / % change of increase of original volume, 2 h / % change of increase of original volume, 3 h / % change of increase of original volume, 4 h / % change of increase of original volume, 5 h: vs controls
Method: (§1) The anti-inflammatory and analgesic activity of compound Ib was tested after oral administration in the carrageenin oedema test in the rat (C. A. Winter et al. Proc. Soc. Exp. Biol. Med., 111, 544, 1962), in the phenylquinone writhing test (I. C. Hendershot and J. J. Forsaith, Pharmacol. Exp. Ther., 125, 237, 1959) and in the hot plate test on the mouse (N. B. Eddy and D. J. Leimbach, J. Pharmacol. Exp. Ther., 107, 385, 1953). The activity of the compound was compared with equimolecular doses of sodium meclofenamate. A comparison was also made between the acute toxicity of the two substances by measuring the oral LD 50 on the rat.
The substances under test, dissolved in distilled water, were administered by a stomach probe 1 hour before subplantar injection of carrageenin (1% in sterile 0.9% NaCl aqueous solution). […]

[1] = test system: writhing induced by phenylquinone; assay: phenylquinone writhing test, oral administration; assay type: in vivo, mouse
Method: as §1
The substances under test were administered by a stomach probe 1 hour before intraperitoneal injection of phenylquinone (2 mg/kg). The abdominal contractions of the treated animals and the controls were counted during every 10 minutes for half an hour.

[2] = test system: reaction time to heat (hot plate); assay type: in vivo, mouse; conditions: oral; for Percentages of mice protected at 30 minutes / Percentages of mice protected at 60 minutes: reaction time 15 seconds or more, 55° C.
Method: as §1
The substances under test were administered by a stomach probe to preselected mice. The controls and the treated animals were placed on the hot plate (55° C.) one at a time immediately after treatment. The reaction time to heat, was measured 30 and 60 minutes after treatment. Animals were considered protected when the reaction time was 15 seconds or more.

[3] = acute toxicity on the rat, oral LD50; assay type: in vivo; conditions: rat, in vivo, po
Method: as §1
(§2) The two LD 50 values were calculated by the probit method.

rat = assay: acute toxicity on the rat, oral LD50; assay type: in vivo
Method: as §1, §2

arachidonic acid oedema = arachidonic acid oedema in the rat, oral administration; assay type: in vivo; conditions: for change of Increase of Original Volume (in parentheses), 60 min: vs controls
Method: (1) Arachidonic acid oedema in the rat (M. J. Di Martino, G. C. Campbell Jnr., C. E. Wolff and N. Hanna, Agents and Actions; 21, 303, 1987)
Compound Ib was administered by gastric probe one hour before subplantar injection of 0.1 ml of 0.5% arachidonic acid in carbonate buffer (pH 8-8.2).
The volume of the paws of the treated animals and of the control was measured with a plethysmometer immediately and 60 minutes after the irritating agent (peak time of oedema).

[4] = test system: 6-day old air pouch irritated by carrageenan; assay: irritation of 6-day old air pouch by carrageenan in the rat; assay type: in vivo
Method: (2) Irritation of 6-day old air pouch by carrageenan in the rat (A. D. Sedgwick, Y. M. Sin, A. R. Mackay, A. Al-Duaij and D. A. Willoughby; J. Pharm. Pharmacol.; 36, 171, 1984).
The formation of a dorsal pouch was induced in the rat by dorsal subcutaneous administration of 20 ml of air. 10 ml of air were then injected every day for three consecutive days in order to keep the cavity permeable. Six days after the first injection of air, the dorsal pouch in the animals was treated with 1 ml of 1% carrageenan in physiological solution.
Compound Ib was administered by gastric probe, 24 hours and 1 hour before administration of the irritating agent.
The animals, dividedinto groups of five, were killed 4 hours and 24 hours after the carrageenan. The volume of the exudate and the total number of leucocytes were measured.

pH of aqueous solution = assay type: physicochemical
[5] = rat, oral, dose corresponding to 10 mg/kg meclofenamic acid (Ib 12.7 mg/kg; sodium meclofenamate 11.0 mg/kg)
[6] = rat, oral, dose corresponding to 10 mg/kg meclofenamic acid
[7] = rat, oral, dose corresponding to 20 mg/kg meclofenamic acid (Ib 25,4 mg/kg; sodium meclofenamate 22,0 mg/kg), **P < 0.01 vs controls
[8] = rat, oral, dose corresponding to 20 mg/kg meclofenamic acid
[9] = oral, Ib 12.7 mg/kg, sodium meclofenamate 11.0 mg/kg
[10] = oral, Ib 25.4 mg/kg, sodium meclofenamate 22.0 mg/kg
[11] = oral, dose corresponding to 10 mg/kg meclofenamic acid (Ib 12.7 mg/kg; sodium meclofenamate 11.0 mg/kg)
[12] = oral, dose corresponding to 10 mg/kg meclofenamic acid (Ib 12.7 mg/kg; sodium meclofenamate 11.0 mg/kg), **P < 0.01 vs controls
[13] = oral, dose corresponding to 20 mg/kg meclofenamic acid (Ib 25.4 mg/kg; sodium meclofenamate 22.0 mg/kg), **P < 0.01 vs controls
[14] = Ib 12.7 mg/kg, sodium meclofenamate 11 mg/kg
[15] = Ib 25.4 mg/kg, sodium meclofenamate 22 mg/kg
[16] = os, Ib 31.75 mg/kg × 2 (**P < 0.01), sodium meclofenamate 27.5 mg/kg × 2 (*P < 0.05 vs controls), 24 h
[17] = os, Ib 31.75 mg/kg × 2, sodium meclofenamate 27.5 mg/kg × 2, 4 h, vs controls
[18] = os, Ib 31.75 mg/kg × 2, sodium meclofenamate 27.5 mg/kg × 2, 24 h, vs controls

Cc1ccc(Cl)c(Nc2ccccc2C(=O)OCC(=O)O)c1Cl [Ib, sodium salt (Ib) of 2-[(2,6-dichloro-3-methylphenyl)-amino]benzoyloxyacetic acid]
significance of Ib vs. sodium meclofenamate (carrageenin oedema; Duncan test): Not significant | Increase of original volume (m ± s.e.), 1 h (carrageenin oedema; [5]): 0.44 ± 0.3 mL | Increase of original volume (m ± s.e.), 2 h (carrageenin oedema; [5]): 0.81 ± 0.07 mL | Increase of original volume (m ± s.e.), 3 h (carrageenin oedema; [5]): 1.23 ± 0.06 mL | Increase of original volume (m ± s.e.), 4 h (carrageenin oedema; [5]): 1.39 ± 0.06 mL | Increase of original volume (m ± s.e.), 5 h (carrageenin oedema; [5]): 1.10 ± 0.08 mL | % change of increase of original volume, 1 h (carrageenin oedema; [6]): -6% | % change of increase of original volume, 2 h (carrageenin oedema; [6]): -15% | % change of increase of original volume, 3 h (carrageenin oedema; [6]): -20% | % change of increase of original volume, 4 h (carrageenin oedema; [6]): -8% | % change of increase of original volume, 5 h (carrageenin oedema; [6]): -10% | Increase of original volume (m ± s.e.), 1 h (carrageenin oedema; rat, oral, dose corresponding to 20 mg/kg meclofenamic acid (Ib 25,4 mg/kg; sodium meclofenamate 22,0 mg/kg)): 0.35 ± 0.05 mL | Increase of original volume (m ± s.e.), 2 h (carrageenin oedema; rat, oral, dose corresponding to 20 mg/kg meclofenamic acid (Ib 25,4 mg/kg; sodium meclofenamate 22,0 mg/kg), *P < 0.05): 0.62 ± 0.07 mL | Increase of original volume (m ± s.e.), 3 h (carrageenin oedema; [7]): 0.78 ± 0.07 mL | Increase of original volume (m ± s.e.), 4 h (carrageenin oedema; [7]): 1.11 ± 0.08 mL | Increase of original volume (m ± s.e.), 5 h (carrageenin oedema; [7]): 1.22 ± 0.08 mL | % change of increase of original volume, 1 h (carrageenin oedema; [8]): -22% | % change of increase of original volume, 2 h (carrageenin oedema; [8]): -35% | % change of increase of original volume, 3 h (carrageenin oedema; [8]): -42% | % change of increase of original volume, 4 h (carrageenin oedema; [8]): -31% | % change of increase of original volume, 5 h (carrageenin oedema; [8]): -26% | anti-inflammatory activity compared with reference (in words) (carrageenin oedema; rat, oral, vs sodium meclofenamate): had the anti-inflammatory and analgesic properties of the reference compound; also recorded: behaved in similar manner | minimal effective dose (carrageenin oedema; rat, oral, read-out: dose at which antagonism of the oedema is statistically significant): 68 µmol/kg | significance of Ib vs. sodium meclofenamate ([1]; Duncan test): Not significant | % Protection, 0-10 minutes [1, 9]: 41% | % Protection, 10-20 minutes [1, 9]: 19% | % Protection, 20-30 minutes [1, 9]: 31% | % Protection, total [1, 9]: 31% | % Protection, 0-10 minutes [1, 10]: 54% | % Protection, 10-20 minutes [1, 10]: 41% | % Protection, 20-30 minutes [1, 10]: 50% | % Protection, total [1, 10]: 48% | Writhing (m ± s.e.) during 10-20 minutes [1, 11]: 16.6 ± 1.5 | Writhing (m ± s.e.) during 20-30 minutes [1, 11]: 9.8 ± 1.0 | Writhing (m ± s.e.) during 0-10 minutes [1, 12]: 14.8 ± 2.9 | Writhing (m ± s.e.), total minutes [1, 12]: 41.2 ± 4.1 | Writhing (m ± s.e.) during 10-20 minutes ([1]; oral, dose corresponding to 20 mg/kg meclofenamic acid (Ib 25.4 mg/kg; sodium meclofenamate 22.0 mg/kg)): 12.1 ± 2.3 | Writhing (m ± s.e.) during 0-10 minutes [1, 13]: 11.6 ± 2.5 | Writhing (m ± s.e.) during 20-30 minutes [1, 13]: 7.2 ± 1.4 | Writhing (m ± s.e.), total minutes [1, 13]: 30.9 ± 5.8 | analgesic activity compared with reference (in words) ([1]; oral, vs sodium meclofenamate, both doses): had the anti-inflammatory and analgesic properties of the reference compound; also recorded: comparable with that of sodium meclofenamate | activity in the hot plate test (in words) ([2]; mouse): some activity; also recorded: slight analgesic activity after 30 minutes | Percentages of mice protected at 30 minutes [2, 14]: 0% | Percentages of mice protected at 60 minutes [2, 14]: 0% | Percentages of mice protected at 30 minutes [2, 15]: 20% | Percentages of mice protected at 60 minutes [2, 15]: 0% | LD50 at 480 h ([3]; male and female rats, 20 days of observation, probit method, read-out: DL50): 271 mg/kg | LD50 at 480 h ([3]; mg/kg meclofenamic acid, read-out: LD50 as corresponding meclofenamic acid): 213 mg/kg | PR (rat; oral LD50, Ib and sodium meclofenamate, rat): 1.935 (1.191-3.586) | Slope (rat; oral LD50, probit method): 2.553 ± 0.6302 | acute toxicity compared with sodium meclofenamate (in words) (rat; rat, oral LD50): less toxic than sodium meclofenamate, to a statistically significant extent | change of Increase of Original Volume (in parentheses), 60 min (arachidonic acid oedema; [14]): -15 | change of Increase of Original Volume (in parentheses), 60 min (arachidonic acid oedema; Ib 38.1 mg/kg, sodium meclofenamate 33 mg/kg): -40 | Increase of Original Volume (m ± s.e.), 60 min (arachidonic acid oedema; dose corresponding to 10 mg/kg meclofenamic acid (Ib 12.7 mg/kg; sodium meclofenamate 11 mg/kg)): 0.53 ± 0.04 | Increase of Original Volume (m ± s.e.), 60 min (arachidonic acid oedema; dose corresponding to 30 mg/kg meclofenamic acid (Ib 38.1 mg/kg, **P < 0.01; sodium meclofenamate 33 mg/kg, *P < 0.05 vs controls)): 0.37 ± 0.05 | activity relative to sodium meclofenamate (arachidonic acid oedema; rat): about twice as active as sodium meclofenamate | statistically significant dose as fraction of the LD50 (arachidonic acid oedema; rat, oedema reduced in statistically significant manner): 1/7 | Leucocytes (m ± s.e.), 24 h [4, 16]: 16.08 ± 6.85 × 10^6 | Volume of exudate (m ± s.e.), 24 h [4, 16]: 0.26 ± 0.06 mL | Leucocytes (m ± s.e.), 4 h ([4]; os, Ib 31.75 mg/kg × 2 (*P < 0.05 vs controls), sodium meclofenamate 27.5 mg/kg × 2, 4 h): 1.08 ± 0.19 × 10^6 | change of leucocytes (in parentheses), 4 h [4, 17]: -76 | change of volume of exudate (in parentheses), 4 h [4, 17]: -25 | change of leucocytes (in parentheses), 24 h [4, 18]: -81 | change of volume of exudate (in parentheses), 24 h [4, 18]: -71 | Volume of exudate (m ± s.e.), 4 h ([4]; os, dose corresponding to 25 mg/kg meclofenamic acid × 2 (Ib 31.75; sodium meclofenamate 27.5 mg/kg), 4 h): 0.24 ± 0.02 mL | activity relative to the reference compound in inhibiting volume of exudate and total content of leucocytes ([4]; rat, oral, equimolar doses (in meclofenamic acid)): about twice as active as the reference compound | pH in 1% aqueous solution (pH of aqueous solution; 1% aqueous solution): 6.9 and 7.1 | pH of aqueous solution (in words) (pH of aqueous solution; 1% aqueous solution (Ib)): practically neutral pH
